Reference: ChEMBL document CHEMBL1138480, “Discovery of highly potent and selective biphenylacylsulfonamide-based beta3-adrenergic receptor agonists and evaluation of physical properties as potential overactive bladder therapies: part 5” (J Med Chem, 2009)

Experiments:
[1] = biological target: Beta-3 adrenergic receptor (Homo sapiens, UniProt P13945); assay: Agonist activity at human recombinant beta3 adrenergic receptor expressed in CHO cells assessed as cAMP accumulation by enzyme immunoassay; type: functional, cell-based
[2] = biological target: Beta-1 adrenergic receptor (Homo sapiens, UniProt P08588)
Description: Agonist activity at human recombinant beta-1 adrenergic receptor expressed in CHO cells assessed as cAMP accumulation by enzyme immunoassay

[3] = AUC (0 to 24 hrs) in Beagle dog at 0.10 mg/kg, po by cassette assay; type: ADME, organism-based, Canis lupus familiaris; design: time < 24 hr, dose 0.1 mg/kg, route oral; settings: plasma, 0.1 mg/kg
[4] = Cmax in Beagle dog at 0.10 mg/kg, po by cassette assay; type: ADME, organism-based, Canis lupus familiaris; design: dose 0.1 mg/kg, route oral; settings: in vivo, 0.1 mg/kg
[5] = Total clearance in Beagle dog at 0.10 mg/kg, iv by cassette assay; type: ADME, organism-based, Canis lupus familiaris; design: dose 0.1 mg/kg, route intravenous; settings: in vivo, 0.1 mg/kg
[6] = Terminal half life in Beagle dog plasma at 0.10 mg/kg, iv by cassette assay; type: ADME, organism-based, Canis lupus familiaris; design: dose 0.1 mg/kg, route intravenous; settings: 0.1 mg/kg, read-out: beta t1/2 (converted)
[7] = Bioavailability in Beagle dog at 0.10 mg/kg, po and iv by cassette assay; type: ADME, organism-based, Canis lupus familiaris; settings: in vivo, 0.1 mg/kg
Canis familiaris [8] = assay: Inhibition of carbachol-induced increase in intravesical pressure in intraduodenally dosed Beagle dog OAB model for 30 mins measured for 180 mins; type: functional, organism-based; settings: Canis lupus familiaris
[9] = biological target: Beta-2 adrenergic receptor (Homo sapiens, UniProt P07550)
Description: Agonist activity at human recombinant beta2 adrenergic receptor expressed in CHO cells assessed as cAMP accumulation by enzyme immunoassay

[10] = biological target: Beta-3 adrenergic receptor (Canis lupus familiaris, UniProt O02662); assay: Agonist activity at dog recombinant beta3 adrenergic receptor expressed in CHO cells assessed as cAMP accumulation by enzyme immunoassay; type: functional, cell-based
[11] = Protein binding in Beagle dog serum; type: ADME, cell-free, Canis lupus familiaris; settings: read-out: PPB (converted)
[12] = Inhibition of KCl-induced tonic contraction in Beagle dog detrusor muscle strips preincubated for 15 mins before KCl challenge; type: functional; settings: Canis lupus familiaris
Canis familiaris [13] = assay: Ratio of Cmax for drug to Cmax for (R)-4'-(2-(2-(3-chlorophenyl)-2-hydroxyethylamino)ethyl)-3-isopropoxybiphenyl-4-carboxylic acid in beagle dog at 0.1 or 0.2 mg/kg, po by cassette assay; type: ADME, organism-based, Canis lupus familiaris; design: dose 0.2 mg/kg, route oral; settings: in vivo
Canis familiaris [14] = assay: Inhibition of carbachol-induced increase in intravesical pressure in Beagle dog OAB model at 10 ug/kg, iv for 30 mins measured for 180 mins; type: functional; settings: Canis lupus familiaris

Chain of Beta-3 adrenergic receptor (Canis lupus familiaris, UniProt O02662) (O02662 whole entry): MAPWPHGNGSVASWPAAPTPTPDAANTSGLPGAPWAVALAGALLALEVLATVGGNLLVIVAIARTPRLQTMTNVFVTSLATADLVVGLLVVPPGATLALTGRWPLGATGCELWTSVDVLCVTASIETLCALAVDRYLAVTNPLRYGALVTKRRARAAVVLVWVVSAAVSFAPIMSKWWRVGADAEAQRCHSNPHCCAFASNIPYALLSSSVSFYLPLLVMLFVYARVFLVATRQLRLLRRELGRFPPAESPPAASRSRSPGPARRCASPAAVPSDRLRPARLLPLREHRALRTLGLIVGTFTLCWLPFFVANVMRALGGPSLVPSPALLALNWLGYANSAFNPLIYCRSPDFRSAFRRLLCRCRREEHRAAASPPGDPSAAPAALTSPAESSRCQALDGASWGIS
Chain of Beta-1 adrenergic receptor (P08588 whole entry): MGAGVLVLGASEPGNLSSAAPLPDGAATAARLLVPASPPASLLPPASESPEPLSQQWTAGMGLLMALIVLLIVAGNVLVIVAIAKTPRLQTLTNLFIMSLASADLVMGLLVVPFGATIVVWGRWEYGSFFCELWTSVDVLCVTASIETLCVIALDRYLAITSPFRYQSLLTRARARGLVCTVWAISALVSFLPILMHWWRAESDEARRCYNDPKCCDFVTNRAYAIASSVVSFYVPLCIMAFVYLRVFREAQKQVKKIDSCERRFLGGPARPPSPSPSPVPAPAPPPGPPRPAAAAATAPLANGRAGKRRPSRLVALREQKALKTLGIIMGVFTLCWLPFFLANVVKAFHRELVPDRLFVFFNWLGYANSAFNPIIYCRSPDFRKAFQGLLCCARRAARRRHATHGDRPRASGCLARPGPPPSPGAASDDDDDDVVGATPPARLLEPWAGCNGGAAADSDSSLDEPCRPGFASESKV
Chain of Beta-3 adrenergic receptor (Homo sapiens, UniProt P13945) (P13945 whole entry): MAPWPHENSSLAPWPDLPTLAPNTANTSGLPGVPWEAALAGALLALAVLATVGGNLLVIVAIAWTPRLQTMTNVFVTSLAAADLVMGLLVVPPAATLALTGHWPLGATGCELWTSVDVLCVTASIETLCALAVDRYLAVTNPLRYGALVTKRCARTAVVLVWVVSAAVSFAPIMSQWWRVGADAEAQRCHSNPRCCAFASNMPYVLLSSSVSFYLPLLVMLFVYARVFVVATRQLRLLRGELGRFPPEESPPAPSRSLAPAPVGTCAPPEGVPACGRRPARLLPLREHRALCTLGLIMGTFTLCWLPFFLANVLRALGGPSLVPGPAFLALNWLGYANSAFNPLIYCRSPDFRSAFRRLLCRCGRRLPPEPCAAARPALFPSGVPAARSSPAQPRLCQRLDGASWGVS
Chain of Beta-2 adrenergic receptor (P07550 whole entry): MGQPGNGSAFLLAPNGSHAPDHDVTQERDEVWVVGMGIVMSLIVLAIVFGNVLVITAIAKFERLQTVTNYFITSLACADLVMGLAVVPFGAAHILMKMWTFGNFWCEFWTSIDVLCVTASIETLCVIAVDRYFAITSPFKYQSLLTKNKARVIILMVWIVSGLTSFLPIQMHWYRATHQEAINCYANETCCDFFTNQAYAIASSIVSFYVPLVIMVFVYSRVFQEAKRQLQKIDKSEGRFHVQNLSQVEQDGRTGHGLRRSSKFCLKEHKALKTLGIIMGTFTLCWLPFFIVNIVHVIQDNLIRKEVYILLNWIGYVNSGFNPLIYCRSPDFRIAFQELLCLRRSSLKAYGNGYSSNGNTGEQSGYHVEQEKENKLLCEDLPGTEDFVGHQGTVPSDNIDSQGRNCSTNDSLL

CS(=O)(=O)NC(=O)c1ccc(-c2ccc(CCNC[C@H](O)c3ccccc3)cc2)cc1OC1CCCC1
EC50 ([1]; read-out: EC50): 0.62 nM
EC50 [2]: 750 nM

CS(=O)(=O)NC(=O)c1ccc(-c2ccc(CCNC[C@H](O)c3ccccc3)cc2)cc1C1CCCCC1.Cl
EC50 ([1]; read-out: EC50): 0.33 nM
AUC(0-t) at 24 h [3]: 106 ng·h/mL
EC50 [2]: > 1000 nM
Cmax [4]: 13.1 ng/mL

CCCSc1cc(-c2ccc(CCNC[C@H](O)c3ccccc3)cc2)ccc1C(=O)NS(C)(=O)=O.Cl
EC50 ([1]; read-out: EC50): 1.4 nM
AUC(0-t) at 24 h [3]: 91.9 ng·h/mL
EC50 [2]: > 1000 nM
Cmax [4]: 8.1 ng/mL

CS(=O)(=O)NC(=O)c1ccc(-c2ccc(CCNC[C@H](O)c3ccccc3)cc2)cc1OC1CCCCCC1
EC50 ([1]; read-out: EC50): 0.38 nM
EC50 [2]: 220 nM

CS(=O)(=O)NC(=O)c1ccc(-c2ccc(CCNC[C@H](O)c3ccccc3)cc2)cc1SC1CCCCC1.Cl
EC50 ([1]; read-out: EC50): 0.5 nM
AUC(0-t) at 24 h [3]: 56.3 ng·h/mL
EC50 [2]: 840 nM
Cmax [4]: 8 ng/mL

CC(C)Nc1cc(-c2ccc(CCNC[C@H](O)c3cccnc3)cc2)ccc1C(=O)NS(C)(=O)=O.Cl.Cl.Cl
EC50 ([1]; read-out: EC50): 0.2 nM
clearance [5]: 16.4 mL/min/kg
half-life [6]: 2.7 h
AUC(0-t) at 24 h [3]: 10.4 ng·h/mL
bioavailability [7]: 12%
EC50 [2]: 320 nM
Cmax [4]: 1.9 ng/mL

CS(=O)(=O)NC(=O)c1ccc(-c2ccc(CCNC[C@H](O)c3cccnc3)cc2)cc1C1CCCC1.Cl.Cl
EC50 ([1]; read-out: EC50): 0.29 nM
clearance [5]: 21.8 mL/min/kg
half-life [6]: 1.4 h
AUC(0-t) at 24 h [3]: 13.4 ng·h/mL
bioavailability [7]: 18%
EC50 [2]: > 1000 nM
Cmax [4]: 1.4 ng/mL

O=C(O)c1ccc(-c2ccc(CCNC[C@H](O)c3cccnc3)cc2)cc1OC1CCCCC1
EC50 ([1]; read-out: pEC50 (converted)): 0.251 nM
EC50 (Canis familiaris [8]): 4 nM
ED50 (Canis familiaris [8]): 0.065 mg/kg
EC50 [9]: > 10000 nM
EC50 ([10]; read-out: pEC50 (converted)): 1.26 nM
fraction unbound [11]: 0.11
EC50 ([12]; read-out: EC50): 14.1 nM
EC50 ([12]; read-out: pEC50 (converted)): 5.01 nM
Ratio (Canis familiaris [13]): 0.48

CC(C)Sc1cc(-c2ccc(CCNC[C@H](O)c3cccnc3)cc2)ccc1C(=O)NS(C)(=O)=O.Cl.Cl
EC50 ([1]; read-out: EC50): 0.19 nM
clearance [5]: 5.4 mL/min/kg
half-life [6]: 4.3 h
AUC(0-t) at 24 h [3]: 50.9 ng·h/mL
bioavailability [7]: 14%
EC50 [2]: 240 nM
Cmax [4]: 5.3 ng/mL

CC(C)Oc1cc(-c2ccc(CCNC[C@H](O)c3ccc(N)cc3)cc2)ccc1C(=O)NS(C)(=O)=O
EC50 ([1]; read-out: EC50): 5.5 nM
EC50 ([1]; read-out: pEC50 (converted)): 0.2 nM
EC50 [2]: > 1000 nM

CS(=O)(=O)NC(=O)c1ccc(-c2ccc(CCNC[C@H](O)c3ccccc3)cc2)cc1C1CCCC1.Cl
EC50 ([1]; read-out: EC50): 0.41 nM
clearance [5]: 4 mL/min/kg
half-life [6]: 4.7 h
AUC(0-t) at 24 h [3]: 211 ng·h/mL
bioavailability [7]: 50%
EC50 [2]: > 1000 nM
Cmax [4]: 17.1 ng/mL

CS(=O)(=O)NC(=O)c1ccc(-c2ccc(CCNC[C@H](O)c3ccccc3)cc2)cc1CC1CCCCC1.Cl
EC50 ([1]; read-out: EC50): 0.54 nM
clearance [5]: 4.9 mL/min/kg
half-life [6]: 3.9 h
AUC(0-t) at 24 h [3]: 230 ng·h/mL
bioavailability [7]: 70%
EC50 [2]: 370 nM
Cmax [4]: 27.9 ng/mL

CC(C)Oc1cc(-c2ccc(CCNC[C@H](O)c3ccccc3)cc2)ccc1C(=O)NS(C)(=O)=O.Cl
EC50 ([1]; read-out: EC50): 3.1 nM
EC50 ([1]; read-out: pEC50 (converted)): 0.631 nM
clearance [5]: 2.3 mL/min/kg
half-life [6]: 12 h
EC50 ([10]; read-out: EC50): 4.9 nM
EC50 ([10]; read-out: pEC50 (converted)): 1 nM
AUC(0-t) at 24 h [3]: 562 ng·h/mL
inhibition in vivo at 0.01 mg/kg (Canis familiaris [14]): 51%
bioavailability [7]: 75%
EC50 [2]: > 1000 nM
Cmax [4]: 33.4 ng/mL

CC(C)Cc1cc(-c2ccc(CCNC[C@H](O)c3cccnc3)cc2)ccc1C(=O)NS(C)(=O)=O.Cl.Cl
EC50 ([1]; read-out: EC50): 0.32 nM
clearance [5]: 35.9 mL/min/kg
half-life [6]: 0.6 h
AUC(0-t) at 24 h [3]: 12 ng·h/mL
bioavailability [7]: 21%
EC50 [2]: 490 nM
Cmax [4]: 2.6 ng/mL

CC(C)Cc1cc(-c2ccc(CCNC[C@H](O)c3cccnc3)cc2)ccc1C(=O)O
Ratio (Canis familiaris [13]): 0.36
